Results as given in patent publication US20250026743A1, “HETEROARYL-LINKED ANALOGS AS MGLU5 NEGATIVE ALLOSTERIC MODULATORS AND METHODS OF MAKING AND USING THE SAME” (Vanderbilt University, priority 2021, published 2025).

Molecular target: T1, hmGlu5 (Homo sapiens, UniProt P41594)
T1 construct: expressed in transfected cells; host or cells: HEK 293A
Experiment: mGlu5 Ca2+ flux assay in HEK 293A cells (negative allosteric modulation of glutamate EC80 response)
Assay type: cell-based
Details: for remaining activity at 30 µM: HEK293-A, % Glu max at 30 μM, read-out: hmGlu5 NAM Emin (%); for IC50: HEK 293A cells, Ca2+ flux, glutamate EC80, >10,000 = decrease without plateau, read-out: hmGlu5 NAM IC50
Procedure, shortened: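 HEK 293A cells stably expressing rat or human mGlu5, Fluo-4 AM loaded; compound added 2.3 min before glutamate EC20, then EC80; Ca2+ fluorescence peak amplitudes (F/F0) normalised to glutamate max. IC50 from 4-parameter logistic fit, 10-point 1:3 curves, top 30 μM; partial NAMs plateau above 10% Glu Max.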

T1 sequence (P41594 21-1212): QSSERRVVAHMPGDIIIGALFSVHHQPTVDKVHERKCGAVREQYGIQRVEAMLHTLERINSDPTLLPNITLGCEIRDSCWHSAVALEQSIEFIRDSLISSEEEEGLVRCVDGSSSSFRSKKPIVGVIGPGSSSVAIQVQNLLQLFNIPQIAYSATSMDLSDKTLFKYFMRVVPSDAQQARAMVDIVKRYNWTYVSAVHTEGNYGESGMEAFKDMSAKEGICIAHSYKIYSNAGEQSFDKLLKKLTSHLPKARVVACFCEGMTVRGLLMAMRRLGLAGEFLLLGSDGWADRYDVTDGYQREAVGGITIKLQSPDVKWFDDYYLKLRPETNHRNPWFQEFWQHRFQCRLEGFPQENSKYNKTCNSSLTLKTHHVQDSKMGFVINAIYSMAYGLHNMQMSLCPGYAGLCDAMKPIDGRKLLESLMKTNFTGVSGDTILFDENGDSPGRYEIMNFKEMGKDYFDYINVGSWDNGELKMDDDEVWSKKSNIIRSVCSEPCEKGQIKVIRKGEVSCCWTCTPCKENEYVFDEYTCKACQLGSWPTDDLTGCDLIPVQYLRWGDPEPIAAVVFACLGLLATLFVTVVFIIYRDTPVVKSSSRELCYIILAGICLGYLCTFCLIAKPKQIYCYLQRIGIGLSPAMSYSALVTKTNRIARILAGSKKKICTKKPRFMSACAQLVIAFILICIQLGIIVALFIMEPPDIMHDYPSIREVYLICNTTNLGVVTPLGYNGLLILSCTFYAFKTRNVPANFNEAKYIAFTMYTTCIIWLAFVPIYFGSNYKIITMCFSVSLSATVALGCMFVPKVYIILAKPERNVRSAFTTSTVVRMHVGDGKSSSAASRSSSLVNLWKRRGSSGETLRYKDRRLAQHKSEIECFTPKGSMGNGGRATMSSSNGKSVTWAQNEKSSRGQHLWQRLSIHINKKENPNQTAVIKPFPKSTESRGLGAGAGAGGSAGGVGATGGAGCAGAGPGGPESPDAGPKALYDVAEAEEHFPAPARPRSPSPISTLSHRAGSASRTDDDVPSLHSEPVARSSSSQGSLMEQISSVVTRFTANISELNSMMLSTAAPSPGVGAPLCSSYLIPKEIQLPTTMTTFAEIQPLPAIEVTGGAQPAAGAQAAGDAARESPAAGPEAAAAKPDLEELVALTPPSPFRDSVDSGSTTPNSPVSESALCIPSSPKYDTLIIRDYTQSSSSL

SMILES	remaining activity at 30 µM [%]	IC50 [nM]
Cc1nc(-c2nc(-c3cscn3)no2)cc(-c2cncc(F)c2)c1F [Compound 53, 5-(5,5′-difluoro-6′-methyl-[3,4′-bipyridin]-2′-yl)-3-(thiazol-4-yl)-1,2,4-oxadiazole]	23	481
COc1ncc(-c2cc(-c3nnc(-c4ccc(F)cn4)o3)nc(C)c2F)cc1F [Compound 76, 2-(5,5′-difluoro-6-methoxy-6′-methyl-[3,4′-bipyridin]-2′-yl)-5-(5-fluoropyridin-2-yl)-1,3,4-oxadiazole]	9	5750
Cc1nc(-c2noc(-c3ccc(F)cn3)n2)cc(-c2cncc(C#N)c2)c1F [Compound 68, 3′-fluoro-6′-(5-(5-fluoropyridin-2-yl)-1,2,4-oxadiazol-3-yl)-2′-methyl-[3,4′-bipyridine]-5-carbonitrile]	3	757
Cc1csc(-c2nc(-c3cc(-c4cncc(F)c4)c(F)c(C)n3)no2)n1 [Compound 16, 3-(5,5′-difluoro-6′-methyl-[3,4′-bipyridin]-2′-yl)-5-(4-methylthiazol-2-yl)-1,2,4-oxadiazole]	9	613
Cc1ccncc1-c1cc(-c2noc(-c3cccc(Cl)c3)n2)nc(C)c1F [Compound 23, 5-(3-chlorophenyl)-3-(5′-fluoro-4,6′-dimethyl-[3,4′-bipyridin]-2′-yl)-1,2,4-oxadiazole]	2	117
Cc1nc(-c2noc(-c3cscn3)n2)cc(-c2cncc(F)c2)c1F [Compound 52, 3-(5,5′-difluoro-6′-methyl-[3,4′-bipyridin]-2′-yl)-5-(thiazol-4-yl)-1,2,4-oxadiazole]	18	> 10000
Cc1ccncc1-c1cc(-c2nnc(-c3cccc(F)c3)o2)nc(C)c1F [Compound 40, 2-(5′-fluoro-4,6′-dimethyl-[3,4′-bipyridin]-2′-yl)-5-(3-fluorophenyl)-1,3,4-oxadiazole]	2	705

Continued, values first:

remaining activity at 30 µM [%]	IC50 [nM]	SMILES
2	123	Cc1cc(-c2cncc(F)c2)cc(-c2nc(-c3ccc(F)cn3)no2)n1 [Compound 90, 5-(5-fluoro-6′-methyl-[3,4′-bipyridin]-2′-yl)-3-(5-fluoropyridin-2-yl)-1,2,4-oxadiazole]
2	300	COc1c(-c2cncc(F)c2)cc(-c2n[nH]c(-c3ccccc3F)n2)nc1C [Compound 100, 5-fluoro-6′-(5-(2-fluorophenyl)-1H-1,2,4-triazol-3-yl)-3′-methoxy-2′-methyl-3,4′-bipyridine]
2	591	CCn1cc(-c2cc(-c3nnc(-c4ccc(F)cn4)o3)nc(C)c2F)cn1 [Compound 75, 2-(4-(1-ethyl-1H-pyrazol-4-yl)-5-fluoro-6-methylpyridin-2-yl)-5-(5-fluoropyridin-2-yl)-1,3,4-oxadiazole]
13	1130	Cc1csc(-c2nc(-c3cc(-c4cnc(C)s4)c(F)c(C)n3)no2)n1 [Compound 18, 3-(5-fluoro-6-methyl-4-(2-methylthiazol-5-yl)pyridin-2-yl)-5-(4-methylthiazol-2-yl)-1,2,4-oxadiazole]
2	149	Fc1ccc(-c2noc(-c3cc(-c4cncc(F)c4)cc(C(F)F)n3)n2)nc1 [Compound 78, 5-(6′-(difluoromethyl)-5-fluoro-[3,4′-bipyridin]-2′-yl)-3-(5-fluoropyridin-2-yl)-1,2,4-oxadiazole]
11	917	Cc1cc(-c2cncc(F)c2)cc(-c2noc(-c3nc(C)cs3)n2)n1 [Compound 72, 3-(5-fluoro-6′-methyl-[3,4′-bipyridin]-2′-yl)-5-(4-methylthiazol-2-yl)-1,2,4-oxadiazole]
34	5500	Cc1nc(-c2noc(-c3ccccc3F)n2)cc(-c2cncc(F)c2)c1F [Compound 47, 3-(5,5′-difluoro-6′-methyl-[3,4′-bipyridin]-2′-yl)-5-(2-fluorophenyl)-1,2,4-oxadiazole]
